Assay results published in patent publication US20240148821A1, “PHARMACEUTICAL USE OF CYCLIC PEPTIDE COMPOUND” (CHUGAI SEIYAKU KABUSHIKI KAISHA, priority 2021, published 2024).
pIC50: −log10 of the molar value. Numbered stars: 1 amine (or outer) side, 2 acyl side, 3 side chain; on linkers, the order of the positions; unused ones are H or OH. Bridge positions count the residues as written; N and C are the ends. Square brackets hold non-standard residues; d marks the D form. Peptide text beside a SMILES is read from it. * marks the point of attachment. hPhe(3-Cl-4-CF3) = N[C@@H](CCc1ccc(C(F)(F)F)c(Cl)c1)C(=O)O; NMePhe(4-Me) = CN[C@@H](Cc1ccc(C)cc1)C(=O)O; NMedβ3hAla = C[C@H](CC(=O)[*:2])N(C)[*:1]; NMeNva(5,5-F2) = CN[C@@H](CCC(F)F)C(=O)O; NMeGly(cPent) = CN[C@H](C(=O)O)C1CCCC1; NMeCha = CN[C@@H](CC1CCCCC1)C(=O)O; NMehLeu = CN[C@@H](CCC(C)C)C(=O)O; Hyp = O=C(O)[C@@H]1C[C@@H](O)CN1; NMeAhp(2) = CCCCC[C@H](NC)C(=O)O; NMeChg = CN[C@H](C(=O)O)C1CCCCC1; NMeF = CN[C@@H](Cc1ccccc1)C(=O)O; NMeI = CC[C@H](C)[C@H](NC)C(=O)O; NMeD = CN[C@@H](CC(=O)O)C(=O)O; dNMeD = CN[C@H](CC(=O)O)C(=O)O; NMeL = CN[C@@H](CC(C)C)C(=O)O; NMeNle = CCCC[C@H](NC)C(=O)O; NMeV = CN[C@H](C(=O)O)C(C)C; d(β3hA) = C[C@@H](N)CC(=O)O; NMeA = CN[C@@H](C)C(=O)O; Piperidide = C1CCN(*)CC1; Pyrrolidide = C1CCN(*)C1; Ac5c = NC1(C(=O)O)CCCC1; Aze = O=C(O)[C@@H]1CCN1; Sar = CNCC(=O)O

Molecular target: protein-protein interaction between Kras and SOS1 (biotin-tagged human Kras loaded with GDP, His-tagged human SOS1) (Homo sapiens (Human), UniProt P01116, G12D)
Assay: Protein-protein interaction inhibition between Kras and SOS1 (KrasG12D-SOS PPI) using AlphaScreen;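 also: kras produced in E. coli, Ni-coupled donor beads and streptavidin acceptor beads, excitation 680 nm with emission detected at 520–620 nm via singlet oxygen transfer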
Type: biochemical
Settings: AlphaScreen; biotin-tagged human Kras loaded with GDP, His-tagged human SOS1; read-out: KRAS G12D-SOS PPI IC50

| SMILES | pIC50 |
| --- | --- |
| CC[C@H](C)[C@@H]1NC(=O)[C@H](CCC(F)F)N(C)C(=O)C[C@@H](C(=O)N2CCCCC2)N(C)C(=O)[C@H](C(C)C)N(C)C(=O)C2(CCCC2)NC(=O)[C@@H]2CCCN2C(=O)[C@H](CCc2ccc(C(F)(F)F)c(Cl)c2)NC(=O)CN(C)C(=O)[C@H](CC2CCCCC2)N(C)C(=O)[C@@H]2CCN2C(=O)[C@H](C)N(C)C1=O [Compound 1797] ([NMeNva(5,5-F2)]I[NMeA][Aze][NMeCha][Sar][hPhe(3-Cl-4-CF3)]P[Ac5c][NMeV][NMeD]-Piperidide; lactam N-11) | 8.43 |
| CC[C@H](C)[C@@H]1NC(=O)[C@H](CC(C)C)N(C)C(=O)C[C@@H](C)N(C)C(=O)[C@H](C(C)C)N(C)C(=O)C2(CCCC2)NC(=O)[C@@H]2CCCN2C(=O)[C@H](CCc2ccc(C(F)(F)F)c(Cl)c2)NC(=O)CN(C)C(=O)[C@H](CC2CCCCC2)N(C)C(=O)[C@@H]2CCN2C(=O)[C@H](C)N(C)C1=O [Compound 1800] (cyclo([Ac5c][NMeV][NMedβ3hAla][NMeL]I[NMeA][Aze][NMeCha][Sar][hPhe(3-Cl-4-CF3)]P)) | 7.96 |
| CC[C@H](C)[C@@H]1NC(=O)[C@H](CC(C)C)N(C)C(=O)C[C@@H](C)NC(=O)[C@H](C(C)C)N(C)C(=O)C2(CCCC2)NC(=O)[C@@H]2CCCN2C(=O)[C@H](CCc2ccc(C(F)(F)F)c(Cl)c2)NC(=O)CN(C)C(=O)[C@H](Cc2ccc(C)cc2)N(C)C(=O)[C@@H]2CCN2C(=O)[C@H](C)N(C)C1=O [Compound 1801] (cyclo([Ac5c][NMeV][d(β3hA)][NMeL]I[NMeA][Aze][NMePhe(4-Me)][Sar][hPhe(3-Cl-4-CF3)]P)) | 8.54 |
| CC[C@H](C)[C@@H]1NC(=O)[C@H](CC(C)C)N(C)C(=O)C[C@@H](C(=O)N2CCCCC2)N(C)C(=O)[C@H](C(C)C)N(C)C(=O)C2(CCCC2)NC(=O)[C@@H]2CCCN2C(=O)[C@H](CCc2ccc(C(F)(F)F)c(Cl)c2)NC(=O)CN(C)C(=O)[C@H](Cc2ccc(C)cc2)N(C)C(=O)[C@@H]2CCN2C(=O)[C@H](C)N(C)C1=O [Compound 1828] ([NMeL]I[NMeA][Aze][NMePhe(4-Me)][Sar][hPhe(3-Cl-4-CF3)]P[Ac5c][NMeV][NMeD]-Piperidide; lactam N-11) | 8.57 |
| CC[C@H](C)[C@@H]1NC(=O)[C@H](CCC(C)C)N(C)C(=O)C[C@@H](C(=O)N2CCCCC2)N(C)C(=O)[C@H](C(C)C)N(C)C(=O)C2(CCCC2)NC(=O)[C@@H]2CCCN2C(=O)[C@H](CCc2ccc(C(F)(F)F)c(Cl)c2)NC(=O)CN(C)C(=O)[C@H](CC2CCCCC2)N(C)C(=O)[C@@H]2CCN2C(=O)[C@H](C)N(C)C1=O [Compound 1833] ([NMehLeu]I[NMeA][Aze][NMeCha][Sar][hPhe(3-Cl-4-CF3)]P[Ac5c][NMeV][NMeD]-Piperidide; lactam N-11) | 8.12 |
| CC[C@H](C)[C@@H]1NC(=O)[C@H](C)N(C)C(=O)C[C@@H](C(=O)N2CCCCC2)N(C)C(=O)[C@H](C(C)C)N(C)C(=O)C2(CCCC2)NC(=O)[C@@H]2CCCN2C(=O)[C@H](CCc2ccc(C(F)(F)F)c(Cl)c2)NC(=O)[C@H]2CCCN2C(=O)[C@H](Cc2ccccc2)N(C)C(=O)[C@@H]2CCCN2C(=O)CN(C)C1=O [Compound 1839] ([NMeA]I[Sar]P[NMeF][dP][hPhe(3-Cl-4-CF3)]P[Ac5c][NMeV][NMeD]-Piperidide; lactam N-11) | 7.26 |
| CCO[C@@H]1C[C@H]2C(=O)NC3(CCCC3)C(=O)N(C)[C@@H](CC(C)C)C(=O)N(C)[C@H](C)CC(=O)N(C)[C@@H](CC(C)C)C(=O)N[C@@H]([C@@H](C)CC)C(=O)N(C)CC(=O)N(C)CC(=O)N(C)[C@@H](CC3CCCCC3)C(=O)N(C)CC(=O)N[C@@H](CCc3ccc(C(F)(F)F)c(Cl)c3)C(=O)N2C1 [Compound 1851] (cyclo([Ac5c][NMeL][NMedβ3hAla][NMeL]I[Sar][Sar][NMeCha][Sar][hPhe(3-Cl-4-CF3)][Hyp](Et))) | 8.60 |
| CC[C@H](C)[C@@H]1NC(=O)[C@H](CC(C)C)N(C)C(=O)C[C@@H](C(=O)N2CCCC2)N(C)C(=O)[C@H](C2CCCCC2)N(C)C(=O)C2(CCCC2)NC(=O)[C@@H]2CCCN2C(=O)[C@H](CCc2ccc(C(F)(F)F)c(Cl)c2)NC(=O)CN(C)C(=O)[C@H](Cc2ccc(C)cc2)N(C)C(=O)[C@@H]2CCN2C(=O)[C@H](C)N(C)C1=O [Compound 1852] ([NMeL]I[NMeA][Aze][NMePhe(4-Me)][Sar][hPhe(3-Cl-4-CF3)]P[Ac5c][NMeChg][NMeD]-Pyrrolidide; lactam N-11) | 9.03 |
| CCCCC[C@H]1C(=O)N(C)CC(=O)N[C@@H](CCc2ccc(C(F)(F)F)c(Cl)c2)C(=O)N2CCC[C@H]2C(=O)NC2(CCCC2)C(=O)N(C)[C@@H](C(C)C)C(=O)N(C)[C@H](C(=O)N2CCCCC2)CC(=O)N(C)[C@@H](CC(C)C)C(=O)N[C@@H]([C@@H](C)CC)C(=O)N(C)[C@@H](C)C(=O)N2CC[C@H]2C(=O)N1C [Compound 1854] ([NMeL]I[NMeA][Aze][NMeAhp(2)][Sar][hPhe(3-Cl-4-CF3)]P[Ac5c][NMeV][NMeD]-Piperidide; lactam N-11) | 8.26 |
| CCCC[C@H]1C(=O)N(C)[C@H](C(=O)N2CCCCC2)CC(=O)N(C)[C@@H](CC(C)C)C(=O)N[C@@H]([C@@H](C)CC)C(=O)N(C)[C@@H](C)C(=O)N2CC[C@H]2C(=O)N(C)[C@@H](CC2CCCCC2)C(=O)N(C)CC(=O)N[C@@H](CCc2ccc(C(F)(F)F)c(Cl)c2)C(=O)N2CCC[C@H]2C(=O)NC2(CCCC2)C(=O)N1C [Compound 1859] ([NMeL]I[NMeA][Aze][NMeCha][Sar][hPhe(3-Cl-4-CF3)]P[Ac5c][NMeNle][NMeD]-Piperidide; lactam N-11) | 7.82 |
| CC[C@H](C)[C@@H]1NC(=O)[C@H]([C@@H](C)CC)N(C)C(=O)C[C@@H](C(=O)N2CCCCC2)N(C)C(=O)[C@H](C(C)C)N(C)C(=O)C2(CCCC2)NC(=O)[C@@H]2CCCN2C(=O)[C@H](CCc2ccc(C(F)(F)F)c(Cl)c2)NC(=O)CN(C)C(=O)[C@H](CC2CCCCC2)N(C)C(=O)[C@@H]2CCN2C(=O)[C@H](C)N(C)C1=O [Compound 1863] ([NMeI]I[NMeA][Aze][NMeCha][Sar][hPhe(3-Cl-4-CF3)]P[Ac5c][NMeV][NMeD]-Piperidide; lactam N-11) | 8.00 |
| CC[C@H](C)[C@@H]1NC(=O)[C@H](CC(C)C)N(C)C(=O)C[C@@H](C(=O)N2CCCC2)N(C)C(=O)[C@H](C(C)C)N(C)C(=O)C2(CCCC2)NC(=O)[C@@H]2CCCN2C(=O)[C@H](CCc2ccc(C(F)(F)F)c(Cl)c2)NC(=O)CN(C)C(=O)[C@H](Cc2ccc(C)cc2)N(C)C(=O)[C@@H]2CCN2C(=O)[C@H](C)N(C)C1=O [Compound 1866] ([NMeL]I[NMeA][Aze][NMePhe(4-Me)][Sar][hPhe(3-Cl-4-CF3)]P[Ac5c][NMeV][NMeD]-Pyrrolidide; lactam N-11) | 8.55 |
| CC[C@H](C)[C@@H]1NC(=O)[C@H](CC(C)C)N(C)C(=O)C[C@H](C(=O)N2CCCC2)N(C)C(=O)[C@H](C2CCCC2)N(C)C(=O)C2(CCCC2)NC(=O)[C@@H]2CCCN2C(=O)[C@H](CCc2ccc(C(F)(F)F)c(Cl)c2)NC(=O)CN(C)C(=O)[C@H](CC2CCCCC2)N(C)C(=O)[C@@H]2CCN2C(=O)[C@H](C)N(C)C1=O [Compound 1868] ([NMeL]I[NMeA][Aze][NMeCha][Sar][hPhe(3-Cl-4-CF3)]P[Ac5c][NMeGly(cPent)][dNMeD]-Pyrrolidide; lactam N-11) | 7.00 |
